Test [1] concerns Trypanosoma brucei Lister 427 strain, bloodstream form. The test can be described thus: Assay for proliferation of kinetoplastid parasite Trypanosoma brucei (Cell Titer Glo, 48 hours). The class given is cell-based. To be noted: Trypanosoma brucei, T. brucei Lister 427 bloodstream form, read-out: T. brucei EC50. A digest of the protocol: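 Bloodstream-form T. brucei Lister 427 in HMI-9 medium was exposed to compound (DMSO vehicle) for 48 hours at 37° C, 5% CO2. Parasite growth was read as ATP by CellTiter-Glo luminescence, with EC50 calculated from percent inhibition.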

For test [2], the system named is L. donovani HU3 strain in mouse peritoneal macrophages. The test can be described thus: Assay for proliferation of Leishmania parasites in infected mouse peritoneal macrophages (SybrGreen staining, high-content imaging, 5 days). The class given is cell-based, Leishmania donovani. To be noted: Leishmania donovani, Peritoneal macrophage, L. donovani in mouse peritoneal macrophages, read-out: L. donovani Macrophage EC50.

The subject of test [3] is Leishmania donovani axenic amastigote parasites. In words: Leishmania donovani axenic amastigote proliferation assay (Cell TiterGlo luminescence, 2 day incubation). The class given is cell-based. To be noted: Leishmania donovani, read-out: L. donovani amastigotes EC50. For orientation: In ATP-based viability assays light output follows the ATP content of the culture.
In test [4] the test system is Trypanosoma cruzi amastigotes (Tulahuen strain expressing Lac-Z) cultured in 3T3 fibroblast cells. The test can be described thus: microbe, parasite or virus in culture. The class given is cell-based. To be noted: Trypanosoma cruzi, TULAHUEN, Fibroblast, T. cruzi amastigotes in 3T3 fibroblast cells, read-out: T cruzi EC50.
[5] abbreviates: axenic amastigotes, inhibition of proliferation.

Structures are written as SMILES. Read-outs that look alike come from different tables or passages of the source.

In general, EC50 refers to the concentration giving half of the maximal effect. Consider `Cc1ncc(C(=O)Nc2ccc(F)c(-c3cn4cc(C5CCOCC5)cnc4n3)c2)o1` [Compound 424], for which the EC50 was found to be 54 nM in test [1], 164 nM in test [2], 56 nM in test [3] (L. donovani axenic amastigotes) and 118 nM in test [4].

As to `CC(C)OC(=O)Nc1cnc2nc(-c3cc(NC(=O)N(C)CC(F)(F)F)ccc3F)cn2c1` [Compound 222], the EC50 in test [1] (inhibition of proliferation) turned out to be 67 nM; in test [2] (inhibition of proliferation) it was 424 nM; in test [3] (setting [5]), 109 nM; in test [4] (inhibition of proliferation), 419 nM.

For the molecule `O=C(Nc1ccc(Cl)c(-c2cn3cc(N4CCCC4)cnc3n2)c1)N1CCCC1` [Compound 495], the EC50 came to 36 nM in test [1], 233 nM in test [2], 235 nM in test [3] (L. donovani axenic amastigotes) and 55 nM in test [4].

Consider `CC1(C(=O)Nc2cnc3nc(-c4cc(NC(=O)N5CCCC5)ccc4F)cn3c2)CCCO1` (stereo not drawn) [Compound 127], for which the concentration giving a half-maximal response (EC50) in test [1] (inhibition of proliferation) worked out at 74 nM; in test [2] (inhibition of proliferation) it was 2120 nM; in test [3] (setting [5]), 561 nM; in test [4] (inhibition of proliferation), 1980 nM.

Consider `CC(C)OC(=O)Nc1cnc2nc(-c3cc(Nc4ccccn4)ccc3F)cn2c1` [Compound 484, isopropyl (2-(2-fluoro-5-(pyridin-2-ylamino)phenyl)imidazo[1,2-a]pyrimidin-6-yl)carbamate], for which the EC50 in test [1] turned out to be 1360 nM; in test [2] it was 9110 nM; in test [3] (L. donovani axenic amastigotes), 1480 nM; in test [4], 361 nM.

Take `CC(C)OC(=O)Nc1cnc2nc(-c3cc(NC(=O)c4cnco4)ccc3F)cn2c1` [Compound 78]: the EC50 worked out at 553 nM in test [1] (inhibition of proliferation), 6410 nM in test [2] (inhibition of proliferation), 307 nM in test [3] (setting [5]) and 1910 nM in test [4] (inhibition of proliferation).

In the case of `Cc1cccc(-c2cnc3nc(-c4cc(NC(=O)c5oc(C)nc5C)ccc4F)cn3c2)n1` [Compound 376], the EC50 turned out to be 158 nM in test [1], 256 nM in test [2], 85 nM in test [3] (L. donovani axenic amastigotes) and 96 nM in test [4].

For the molecule `CN(C)C(=O)Nc1ccc(F)c(-c2cn3cc(C(F)(F)F)cnc3n2)c1` [Compound 298], the EC50 was 355 nM in test [1] (inhibition of proliferation), 2230 nM in test [2] (inhibition of proliferation), 781 nM in test [3] (setting [5]) and 525 nM in test [4] (inhibition of proliferation).

For the molecule `Cc1nc(C)c(C(=O)Nc2ccc(F)c(-c3cn4cc(C#CCCN5CCCC(O)C5)cnc4n3)c2)o1` (stereo not drawn) [Compound 545], the EC50 in test [1] worked out at 3250 nM; in test [2], 2130 nM; in test [3] (L. donovani axenic amastigotes) it was 3900 nM; in test [4], 7180 nM.

On to `Cc1nc(C)c(C(=O)Nc2ccc(F)c(-c3cn4cc(C5=CCCN(C)C5)cnc4n3)c2)o1` [Compound 375], for which the EC50 amounted to 135 nM in test [1], 499 nM in test [2], 4300 nM in test [3] (L. donovani axenic amastigotes) and 303 nM in test [4].

As for `CC(C)OC(=O)Nc1cnc2nc(-c3cc(NC(=O)N4CC[C@@H](O)C4)ccc3Cl)cn2c1` [Compound 286], the EC50 is 29700 nM in test [1] (inhibition of proliferation), over 50000 nM in test [2] (inhibition of proliferation), over 19700 nM in test [3] (setting [5]) and over 20000 nM in test [4] (inhibition of proliferation).

Consider `Cc1ncc(C(=O)Nc2ccc(F)c(-c3cn4cc(C(F)F)cnc4n3)c2)o1` [Compound 209], for which the EC50 in test [1] (inhibition of proliferation) came out at 169 nM; in test [2] (inhibition of proliferation), 317 nM; in test [3] (setting [5]) it was 87 nM; in test [4] (inhibition of proliferation), 130 nM.

`CN(C)C(=O)Nc1ccc(F)c(-c2cn3cc(N(C)C)cnc3n2)c1` [Compound 583, 3-(3-(6-(dimethylamino)imidazo[1,2-a]pyrimidin-2-yl)-4-fluorophenyl)-1,1-dimethylurea]: the EC50 in test [1] came to 139 nM; in test [2], 1790 nM; in test [3] (L. donovani axenic amastigotes), 869 nM; in test [4], 377 nM.

For `Cc1nc(C)c(C(=O)Nc2ccc(F)c(-c3cn4cc(-c5cccc(C(N)=O)n5)cnc4n3)c2)o1` [Compound 433], the EC50 was 494 nM in test [1], over 50000 nM in test [2], 1810 nM in test [3] (L. donovani axenic amastigotes) and over 20000 nM in test [4].

Take `Cc1nc(C)c(C(=O)Nc2ccc(F)c(-c3cn4cc(NC(=O)C5(C)CCCO5)cnc4n3)c2)o1` (stereo not drawn) [Compound 193]: the EC50 in test [1] (inhibition of proliferation) came to 201 nM; in test [2] (inhibition of proliferation) it was 717 nM; in test [3] (setting [5]) it was 339 nM; in test [4] (inhibition of proliferation), 1090 nM.

With `Cc1nc(C)c(C(=O)Nc2ccc(F)c(-c3cn4cc(Nc5ncccc5C(F)(F)F)cnc4n3)c2)o1` [Compound 488], the EC50 came to 58 nM in test [1], 132 nM in test [2], 32 nM in test [3] (L. donovani axenic amastigotes) and 36 nM in test [4].

For the molecule `COCCC(=O)Nc1cnc2nc(-c3cc(NC(=O)c4oc(C)nc4C)ccc3F)cn2c1` [Compound 166], the EC50 in test [1] (inhibition of proliferation) was 1010 nM; in test [2] (inhibition of proliferation), over 46300 nM; in test [3] (setting [5]), 2280 nM; in test [4] (inhibition of proliferation), over 20000 nM.

In the case of `Cc1nc(C)c(C(=O)Nc2ccc(F)c(-c3cn4cc(NC(=O)[C@H]5CCCO5)cnc4n3)c2)o1` [Compound 164], the EC50 was determined as 196 nM in test [1] (inhibition of proliferation), 913 nM in test [2] (inhibition of proliferation), 280 nM in test [3] (setting [5]) and 1990 nM in test [4] (inhibition of proliferation).

With `O=C(Nc1cnc2nc(-c3cc(NC(=O)N4CCCC4)ccc3F)cn2c1)c1ccc(F)cn1` [Compound 124], the EC50 in test [1] (inhibition of proliferation) came to 23 nM; in test [2] (inhibition of proliferation) it was 5640 nM; in test [3] (setting [5]) it was 49 nM; in test [4] (inhibition of proliferation), 46 nM.

Consider `Cc1ncc(C(=O)Nc2ccc(Cl)c(-c3cn4cc(NC(=O)OC(C)C)cnc4n3)c2)o1` [Compound 47], for which the EC50 in test [1] (inhibition of proliferation) worked out at 128 nM; in test [2] (inhibition of proliferation) it was 220 nM; in test [3] (setting [5]), 77 nM; in test [4] (inhibition of proliferation), 442 nM.

As to `CNc1ccc(-c2cnc3nc(-c4cc(NC(=O)c5oc(C)nc5C)ccc4F)cn3c2)nc1` [Compound 432], the EC50 in test [1] amounted to 18 nM; in test [2] it was 33 nM; in test [3] (L. donovani axenic amastigotes), 12 nM; in test [4], 21 nM.

Regarding `CC(C)OC(=O)Nc1cnc2nc(-c3cc(NC(=O)NC4CCC4)ccc3Cl)cn2c1` [Compound 269], the EC50 was 3570 nM in test [1] (inhibition of proliferation), 15100 nM in test [2] (inhibition of proliferation), 9590 nM in test [3] (setting [5]) and 4160 nM in test [4] (inhibition of proliferation).

As to `COC(=O)COc1cnc2nc(-c3cc(NC(=O)c4oc(C)nc4C)ccc3F)cn2c1` [Compound 609], the EC50 in test [1] is 1050 nM; in test [2] it was 5970 nM; in test [3] (L. donovani axenic amastigotes), 835 nM; in test [4], over 20000 nM.

`Nc1cnc2nc(-c3cc(NC(=O)c4ccc(F)o4)ccc3Cl)cn2c1` [Compound 577, N-(3-(6-aminoimidazo[1,2-a]pyrimidin-2-yl)-4-chlorophenyl)-5-fluorofuran-2-carboxamide]: the EC50 in test [1] is 1350 nM; in test [2], over 50000 nM; in test [3] (L. donovani axenic amastigotes), 2990 nM; in test [4], 2340 nM.

Regarding `Cc1nc(C)c(C(=O)Nc2ccc(F)c(-c3cn4cc(N(C)C(=O)OC(C)C)cnc4n3)c2)o1` [Compound 552], the EC50 worked out at 240 nM in test [1], 967 nM in test [2], 420 nM in test [3] (L. donovani axenic amastigotes) and 326 nM in test [4].

Take `Cc1nc(C)c(C(=O)Nc2ccc(F)c(-c3cn4cc(-c5cnn(C6CCOCC6)c5)cnc4n3)c2)o1` [Compound 385]: the EC50 was 369 nM in test [1], over 36700 nM in test [2], 268 nM in test [3] (L. donovani axenic amastigotes) and 1160 nM in test [4].

Regarding `O=C(Nc1ccc(F)c(-c2cn3cc(C(F)(F)F)cnc3n2)c1)N1CC(F)(F)C1` [Compound 300], the EC50 worked out at 155 nM in test [1] (inhibition of proliferation), 397 nM in test [2] (inhibition of proliferation), 90 nM in test [3] (setting [5]) and 148 nM in test [4] (inhibition of proliferation).
